Laboratory results taken from patent publication US20170142972A1, “ANTIMICROBIAL COMPOSITION INHIBITS BACTERIA AND FUNGI” (Troy Corporation, priority 2017, published 2017).

System: Pseudomonas aeruginosa (ATCC #10145), Escherichia coli (ATCC #11229), Enterobacter aerogenes (ATCC #13048), and Alcaligenes faecalis (ATCC #25094)
Experiment: Challenge Method for Quantifying Antibacterial Effectiveness (two 7-day cycles, mixed bacterial inoculum)
Assay type: cell-based
Details: agent alone
Procedure: In order to quantify the relative antibacterial effectiveness of an antimicrobial composition, samples are prepared by adding various amounts of the antimicrobial composition to identical volumes of a sterile test material. […] Each of the samples is subjected to a two-part challenge procedure and the sample that provides acceptable anti-bacterial protection with the lowest concentration of the antimicrobial composition is identified. Each part of the anti-bacterial challenge consists of a 7-day test cycle. The parts are performed consecutively over 14 test days. […] Challenge testing is accomplished using a mixed bacterial inoculum as the contamination event. These bacteria are Pseudomonas aeruginosa (ATCC #10145), Escherichia coli (ATCC #11229), Enterobacter aerogenes (ATCC #13048), and Alcaligenes faecalis (ATCC #25094). To make the test inoculum, each type of bacteria is grown separately in nutrient broth. Just before use in the challenge test, equal volumes of the four types of bacteria are blended together to make a mixed inoculum. After incubation, both control blanks and samples containing preservative are inoculated with the mixed inoculum. […] Performance ratings of 0, 1, 2, 3 or 4 for each test sample are determined by visual inspection according to the definitions set forth below in Table 1.

SMILES: O=c1[nH]sc2ccccc12 [BIT, benzisothiazolinone]
- concentration alone required to provide the required protection against bacterial growth on Test Day 14 (adhesive): at least 0.013%
- concentration alone required to provide the required protection against bacterial growth on Test Day 14 (paint): at least 0.004%
